Results from ChEMBL document CHEMBL4725446, “Development of a Raltegravir-based Photoaffinity-Labeled Probe for Human Immunodeficiency Virus-1 Integrase Capture” (ACS Med Chem Lett, 2020).
Calls of active or inactive are those of the source. The calls are words filed in the database; no cut-off is given here.

What was measured:
[1] = Inhibition of HIV1 integrase assessed as reduction in LEDGF-independent integration pre-incubated for 1 hr before addition of DNA donor and acceptor substrate and measured after 90 mins by HTRF assay; parameters: species or system Human immunodeficiency virus 1
[2] = test system: Human immunodeficiency virus 1; test: Binding affinity to HIV1 integrase assessed as conjugation of enzyme at 7.5 to 25 uM in presence of UV illumination for 15 mins by SDS-PAGE analysis based photoaffinity labelling method; settings: dose microM 7.5-25, time 15.0 min
[3] = test system: Human immunodeficiency virus 1; test: Binding affinity to HIV1 integrase assessed as induction of enzyme molecular weight shift at 7.5 to 25 uM in presence of UV illumination for 15 mins by LC-MS analysis; settings: dose microM 7.5-25, time 15.0 min
[4] = test system: Human immunodeficiency virus 1; test: Binding affinity to HIV1 integrase assessed as induction of cross-linking at peptide region 164ELK166 at 7.5 to 25 uM in presence of UV illumination for 15 mins in presence of trypsin by LC-MS analysis; settings: dose microM 7.5-25, time 15.0 min
[5] = test system: Human immunodeficiency virus 1; test: Binding affinity to HIV1 integrase assessed as induction of cross-linking at peptide region 42EIVASCDK49 at 7.5 to 25 uM in presence of UV illumination for 15 mins in presence of trypsin by LC-MS analysis; settings: dose microM 7.5-25, time 15.0 min

| IC50 [1] [nM] | Activity [2] | Activity [3] | Activity [4] | Activity [5] | SMILES |
| --- | --- | --- | --- | --- | --- |
| 58 |  |  |  |  | Cc1nnc(C(=O)NC(C)(C)c2nc(C(=O)NCc3ccc(F)cc3)c(O)c(=O)n2C)o1 [RALTEGRAVIR] |
| 2300 | Active | Active | Active | Active | CC(C)c1nc(C(=O)NCc2ccc(C(=O)c3ccccc3)cc2)c(O)c(=O)n1C |
| 73000 |  |  |  |  | CC(C)c1nc(C(=O)O)c(O)c(=O)n1C |
